This note sets out measurements from US11926619B2, “Certain pladienolide compounds and methods of use” (EISAI R&D MANAGEMENT CO., LTD., priority 2018, dated 2024).

Format in all cases: cell-based
The subject of test [1] is WiDr cells (colon cancer cells; wildtype SF3B1). Description: Cell viability assay (CellTiter-Glo, 72 hr), WiDr cells. The settings on record: Homo sapiens; WiDr cells (wildtype SF3B1); read-out: WiDr GI50. Here is the method:
(§1) Cells (WiDr and Panc05.04 obtained from ATCC) were seeded in 96-well plates, with 2000 cells/100 μL/well, and incubated overnight. Spent media was removed, and fresh media containing 9 different concentrations of compound (100 μL/well) were added, with DMSO concentration from compound stock solution adjusted to be 0.1%. Each compound treatment was done in duplicate or triplicate at each concentration.
(§2) Another plate with cells seeded was dedicated as a time zero (Tz) plate, to which was added 0.1% DMSO in media (100 μL/well) followed by CellTiter-Glo® reagent (Promega Corporation, Madison, Wisconsin) (50 μL/well) for ATP measurement as a surrogate of cell viability. Average value from measurement of multiple wells of this plate is used as Tz. Compound-treated plates were incubated for 72 hr at 37° C. Then, CellTiter-Glo® reagent (50 μL/well) was added and ATP was measured. Average value from measurement of the duplicate or triplicate compound-treated wells is used as Ti, and seeded plates with medium having 0.1% DMSO without compound is used as control growth (C).
(§3) Percentage growth inhibition/Percentage viability was calculated as:
(§4) [(Ti−Tz)/(C−Tz)]×100 for concentrations for which Ti>/=Tz
(§5) [(Ti−Tz)/Tz]×100 for concentrations for which Ti<Tz.
(§6) *time zero (Tz), control growth (C), and test growth in the presence of compound (Ti) Percentage growth inhibition/Percentage viability are plotted versus compound concentration to determine Emax.
Emax refers to the maximum achievable response to a compound in a tested dose range, with a negative value indicating cellular lethality. A larger negative Emax value indicates greater cellular lethality for a particular compound. […]
A general note: In ATP-based viability assays light output follows the ATP content of the culture.

The subject of test [2] is WiDr-R cells (colon cancer cells; chemically-induced SF3B1 R1074H mutant). Description: Cell viability assay (CellTiter-Glo, 72 hr), resistant WiDr-R cells (counter-screen). The settings on record: WiDr-R cells (SF3B1 R1074H mutation, resistant); read-out: WiDr-R GI50. Here is the method:
as §1, §2, §3, §4, §5, §6
(§7) Emax refers to the maximum achievable response to a compound in a tested dose range, with a negative value indicating cellular lethality. A larger negative Emax value indicates greater cellular lethality for a particular compound.
The counter-screening of compounds in this viability assay with a “resistant” WiDr-R cell line may indicate whether these compounds have off-target effect(s).

Test [3] concerns Panc 05.04 cells (pancreatic cancer cells; Q699H and K700E mutations in SF3B1). Description: Cell viability assay (CellTiter-Glo, 72 hr), Panc 05.04 cells. Particulars: Panc 05.04 cells (mutant SF3B1); for Emax: maximum achievable response in tested dose range, negative value = cellular lethality, read-out: Panc 05.04 (mt SF3B1 cells) Emax (%); for GI50: read-out: Panc 05.04 (mt SF3B1 cells), GI50. Here is the method: as §1, §2, §3, §4, §5, §6, §7

The GI50 is the concentration giving 50% growth inhibition.

As for `C/C(=C\C=C\[C@@H](C)COC(=O)N1CCCC1)[C@H]1OC(=O)C[C@H](O)CC[C@H](C)[C@@H](OC(=O)N2CCN(C3CCCCCC3)CC2)/C=C/[C@@H]1C`, the concentration for 50% growth inhibition (GI50) was 0.00839 µM in test [1], above 1 µM in test [2] and 0.0108 µM in test [3]. Moreover, the Emax in test [3] is -90.9%.

On to `CC(=O)O[C@H]1/C=C/[C@H](C)[C@@H](/C(C)=C/C=C/[C@](C)(O)CCc2ccccc2)OC(=O)C[C@H](O)CC[C@@]1(C)O`, for which the values for the GI50 in test [1], in test [2] and in test [3] were 0.167 µM, above 10 µM and 0.314 µM, respectively. Besides, the Emax in test [3] was -55.4%.

In the case of `C/C(=C\C=C\[C@@H](C)CNC(=O)C1CCCC1)[C@H]1OC(=O)C[C@H](O)CC[C@@](C)(O)[C@@H](OC(=O)N2CCN(C)CC2)/C=C/[C@@H]1C`, the GI50 is 0.263 µM in test [1], above 1 µM in test [2] and 0.137 µM in test [3]. In addition, the Emax in test [3] is -57%.

Take `C/C(=C\C=C\[C@@H](C)COC(=O)N1CCC[C@H]1C)[C@H]1OC(=O)C[C@H](O)CC[C@@](C)(O)[C@@H](OC(=O)N2CCN(C3CCCCCC3)CC2)/C=C/[C@@H]1C`: the GI50 in test [1] is 0.00142 µM; in test [2], 0.0218 µM; in test [3], 0.00252 µM.

For `C/C(=C\C=C\[C@@H](C)COC(=O)N1CC[C@H](C)C1)[C@H]1OC(=O)C[C@H](O)CC[C@@](C)(O)[C@@H](OC(=O)N2CCN(C3CCCCCC3)CC2)/C=C/[C@@H]1C`, the GI50 in test [1] is 0.0062 µM; in test [2], above 1 µM; in test [3], 0.00259 µM. The Emax in test [3] is -93.6%.

Take `C/C(=C\C=C\C(C)c1ccnc(N2CCCC2)n1)[C@H]1OC(=O)C[C@H](O)CC[C@@](C)(O)[C@@H](OC(=O)N2CCN(C3CCCCCC3)CC2)/C=C/[C@@H]1C` (some centres unmarked): the GI50 is 0.023 µM in test [1], 4.31 µM in test [2] and 0.147 µM in test [3]. Besides, the Emax in test [3] is -96.6%.

With `CCCCN(C)C(=O)OC[C@H](C)/C=C/C=C(\C)[C@H]1OC(=O)C[C@H](O)CC[C@@](C)(O)[C@@H](OC(C)=O)/C=C/[C@@H]1C`, the GI50 was 0.0865 µM in test [1], above 10 µM in test [2] and 0.198 µM in test [3].

`C/C(=C\C=C\CCOC(=O)N1CCCC1)[C@H]1OC(=O)C[C@H](O)CC[C@@](C)(O)[C@@H](OC(=O)N2CCN(C)CC2)/C=C/[C@@H]1C`: the GI50 is 0.0636 µM in test [1], above 5.5 µM in test [2] and 0.0584 µM in test [3].

Consider `C/C(=C\C=C\[C@@H](C)CO)[C@H]1OC(=O)C[C@H](O)CC[C@@](C)(O)[C@@H](OC(=O)N2CCN(C)CC2)/C=C/[C@@H]1C`, for which the GI50 in test [1] is 1.15 µM; in test [2] it was above 10 µM; in test [3], 1.39 µM. Moreover, the Emax in test [3] is 35.1%.

Take `C/C(=C\C=C\[C@@H](C)COC(=O)N1C[C@H](O)[C@@H](O)C1)[C@H]1OC(=O)C[C@H](O)CC[C@@](C)(O)[C@@H](OC(=O)N2CCN(C3CCCCCC3)CC2)/C=C/[C@@H]1C`: the results for the GI50 in test [1], in test [2] and in test [3] were 0.294 µM, above 1 µM and 0.0746 µM, respectively. In addition, the Emax in test [3] was -95.4%.

For the compound `C/C(=C\C=C\[C@@H](C)COC(=O)N1CCC2(COC2)C1)[C@H]1OC(=O)C[C@H](O)CC[C@@](C)(O)[C@@H](OC(=O)N2CCN(C3CCCCCC3)CC2)/C=C/[C@@H]1C`, the GI50 in test [1] came out at 0.00639 µM; in test [2], 0.603 µM; in test [3] it was 0.00798 µM. Also, the Emax in test [3] is -76.4%.

On to `C/C(=C\C=C\[C@@H](C)CN(C)C(=O)N1CCCC1)[C@H]1OC(=O)C[C@H](O)CC[C@@](C)(O)[C@@H](OC(=O)N2CCN(C3CCCCCC3)CC2)/C=C/[C@@H]1C`, for which the concentration for 50% growth inhibition (GI50) in test [1] is 0.145 µM; in test [2], above 1 µM; in test [3], 0.0235 µM. Besides, the Emax in test [3] was -94.5%.

In the case of `C/C(=C\C=C\[C@@H](C)COC(=O)N1CC[C@@H](C)C1)[C@H]1OC(=O)C[C@H](O)CC[C@@](C)(O)[C@@H](OC(=O)N2CCN(C3CCCCCC3)CC2)/C=C/[C@@H]1C`, the 50% growth inhibitory concentration (GI50) in test [1] was 0.00393 µM; in test [2], above 1 µM; in test [3], 0.0012 µM. The Emax in test [3] was -86.6%.

With `CC(=O)O[C@H]1/C=C/[C@H](C)[C@@H](/C(C)=C/C=C/C(C)Cc2ccccn2)OC(=O)C[C@H](O)CC[C@@]1(C)O` (some centres unmarked), the concentration for 50% growth inhibition (GI50) in test [1] was 0.911 µM; in test [2], above 10 µM; in test [3], 1.67 µM. Besides, the Emax in test [3] was 20.3%.

Take `C/C(=C\C=C\[C@@H](C)COC(=O)N1CCC[C@H]1CO)[C@H]1OC(=O)C[C@H](O)CC[C@H](C)[C@@H](OC(=O)N2CCN(C)CC2)/C=C/[C@@H]1C`: the GI50 is 0.00266 µM in test [1], above 1 µM in test [2] and 0.00436 µM in test [3]. Besides, in test [3], the Emax is -79%.

As for `C/C(=C\C=C\[C@@H](C)c1ccccn1)[C@H]1OC(=O)C[C@H](O)CC[C@@](C)(O)[C@@H](OC(=O)N2CCN(C3CCCCCC3)C(C)C2)/C=C/[C@@H]1C` (some centres unmarked), the concentration for 50% growth inhibition (GI50) in test [1] was 0.133 µM; in test [2], above 1 µM; in test [3] it was 0.126 µM. In test [3], the Emax was -60.4%.

Turning to `C/C(=C\C=C\[C@@H](C)COC(=O)N1CCC[C@H]1CF)[C@H]1OC(=O)C[C@H](O)CC[C@H](C)[C@@H](OC(=O)N2CCN(C)CC2)/C=C/[C@@H]1C`, the GI50 in test [1] was 0.0022 µM; in test [2], above 1 µM; in test [3], 0.000339 µM. Besides, the Emax in test [3] is -79.1%.

`C/C(=C\C=C\[C@@H](C)COC(=O)N1CCc2ccccc21)[C@H]1OC(=O)C[C@H](O)CC[C@@](C)(O)[C@@H](OC(=O)N2CCN(C)CC2)/C=C/[C@@H]1C`: the GI50 was 0.0198 µM in test [1], above 1 µM in test [2] and 0.0167 µM in test [3]. In addition, the Emax in test [3] is -97%.

Turning to `C/C(=C\C=C\[C@@H](C)COC(=O)N1[C@H](C)CC[C@H]1C)[C@H]1OC(=O)C[C@H](O)CC[C@@](C)(O)[C@@H](OC(=O)N2CCN(C3CCCCCC3)CC2)/C=C/[C@@H]1C`, the GI50 in test [1] turned out to be 0.00239 µM; in test [2], 0.0148 µM; in test [3], 0.00452 µM. Besides, the Emax in test [3] was -68.9%.

`C/C(=C\C=C\[C@@H](C)COC(=O)N1CCC[C@H]1CF)[C@H]1OC(=O)C[C@H](O)CC[C@@](C)(O)[C@@H](OC(=O)N2CCN(C)CC2)/C=C/[C@@H]1C`: the values for the concentration for 50% growth inhibition (GI50) in test [1], in test [2] and in test [3] were 0.0017 µM, above 1 µM and 0.00225 µM, respectively. In addition, the Emax in test [3] is -82.1%.

On to `CC(=O)O[C@H]1/C=C/[C@H](C)[C@@H](/C(C)=C/C=C/Cc2cccnc2)OC(=O)C[C@H](O)CC[C@@]1(C)O`, for which the GI50 is 0.538 µM in test [1], above 10 µM in test [2] and above 6.4 µM in test [3]. Also, in test [3], the Emax stood at 84.5%.

Take `CC[C@H](O)[C@@H](C)C(=O)OC[C@H](C)/C=C/C=C(\C)[C@H]1OC(=O)C[C@H](O)CC[C@@](C)(O)[C@@H](OC(C)=O)/C=C/[C@@H]1C`: the concentration for 50% growth inhibition (GI50) in test [1] was 0.0428 µM; in test [2], above 10 µM; in test [3], 0.0311 µM. For the same compound, the Emax in test [3] was -90.5%.

`C/C(=C\C=C\[C@@H](C)COC(=O)N1CCC[C@H]1C(N)=O)[C@H]1OC(=O)C[C@H](O)CC[C@@](C)(O)[C@@H](OC(=O)N2CCN(C3CCCCCC3)CC2)/C=C/[C@@H]1C`: the GI50 in test [1] was 0.0328 µM; in test [2], above 1 µM; in test [3], 0.0402 µM. Further, the Emax in test [3] is -92.9%.
